Test results reported in the supplement of paper PMC10307832.

Compound: CC(C)CCN1c2nc(Nc3cc(F)c(O)c(F)c3)ncc2N(C)C(=O)C1C [BI-D1870] + NC(=O)Nc1cc(-c2cccc(F)c2)sc1C(=O)N[C@H]1CCCNC1 [AZD7762] (partner 0.2 µM)
Assay: relative viability (nuclei count vs DMSO), 5 days (fraction); higher = more cells survive
Conditions: first compound 0.04 µM
In short: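 Lung cancer cell lines in 1536-well plates were dosed by pin tool the day after seeding, either with one drug alone or with a fixed anchor-drug dose plus five library-drug doses (not always all listed) in √10 steps. After 5 days, cells were fixed and their nuclei stained in one step (final 0.05% Triton X-100, 1% formaldehyde, 1 ug/ml Hoechst), then counted on 4× images. Relative viability is the nuclei count in treated wells divided by that in vehicle wells. Values are medians of duplicate plates.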

In order of falling relative viability:
1. NCI-H2087  1.41
2. NCI-H441  1.29
3. NCI-H1437  1.09
4. LXF-289  1.08
5. NCI-H2170  0.977
6. HOP-62  0.969
7. H3255  0.956
8. NCI-H1355  0.954
9. NCI-H3122  0.947
10. NCI-H2405  0.875
11. A-427  0.86
12. LOU-NH91  0.846
13. NCI-H2347  0.811
14. CAL-12T  0.749
15. NCI-H1915  0.706
16. NCI-H460  0.702
17. BEN  0.699
18. HCC-78  0.677
19. 201T  0.663
20. NCI-H1734  0.635
21. NCI-H322M  0.591
22. NCI-H1651  0.511
23. HARA  0.442
24. NCI-H647  0.432
25. NCI-H1755  0.417
26. LU99A  0.414
27. NCI-H1395  0.398
28. NCI-H23  0.337
29. HCC-827  0.233
30. EPLC-272H  0.207
31. LCLC-97TM1  0.194

Same assay, conditions: first compound 0.1265 µM

In order of falling relative viability:
1. NCI-H2087  1.4
2. NCI-H441  1.09
3. NCI-H1437  1.06
4. LXF-289  1.04
5. H3255  0.965
6. NCI-H3122  0.902
7. HOP-62  0.898
8. NCI-H2170  0.882
9. NCI-H2347  0.768
10. LOU-NH91  0.755
11. NCI-H1355  0.732
12. A-427  0.717
13. NCI-H2405  0.707
14. NCI-H1915  0.636
15. NCI-H460  0.621
16. HCC-78  0.593
17. BEN  0.574
18. NCI-H322M  0.558
19. CAL-12T  0.546
20. 201T  0.534
21. NCI-H647  0.502
22. NCI-H1734  0.494
23. NCI-H1651  0.491
24. LK-2  0.473
25. NCI-H1755  0.412
26. NCI-H1395  0.374
27. LCLC-97TM1  0.317
28. HARA  0.307
29. LU99A  0.3
30. HCC-827  0.295
31. NCI-H23  0.224
32. EPLC-272H  0.17

Same assay, conditions: first compound 0.4 µM

In order of falling relative viability:
1. NCI-H2087  1.37
2. NCI-H1437  1.12
3. LXF-289  1.07
4. NCI-H441  1.03
5. NCI-H3122  0.952
6. H3255  0.851
7. A-427  0.848
8. NCI-H2170  0.844
9. HOP-62  0.798
10. NCI-H2347  0.798
11. LOU-NH91  0.73
12. NCI-H2405  0.717
13. NCI-H1355  0.7
14. NCI-H1915  0.665
15. CAL-12T  0.637
16. BEN  0.633
17. NCI-H322M  0.611
18. NCI-H1734  0.608
19. 201T  0.602
20. NCI-H460  0.566
21. HCC-78  0.528
22. NCI-H647  0.494
23. LU99A  0.429
24. NCI-H1395  0.42
25. NCI-H1755  0.407
26. NCI-H1651  0.395
27. LK-2  0.374
28. HARA  0.263
29. EPLC-272H  0.257
30. NCI-H23  0.23
31. LCLC-97TM1  0.174
32. HCC-827  0.173

Same assay, conditions: first compound 1.265 µM

In order of falling relative viability:
1. NCI-H2087  1.45
2. NCI-H1437  1.1
3. NCI-H441  1.09
4. H3255  1.07
5. LXF-289  1.06
6. NCI-H3122  1.06
7. A-427  1.01
8. NCI-H460  0.993
9. BEN  0.961
10. NCI-H2347  0.933
11. NCI-H2170  0.923
12. NCI-H1355  0.849
13. HOP-62  0.834
14. HCC-78  0.815
15. NCI-H2405  0.806
16. LOU-NH91  0.804
17. NCI-H1734  0.72
18. NCI-H1915  0.7
19. NCI-H322M  0.684
20. LU99A  0.655
21. 201T  0.618
22. NCI-H647  0.611
23. CAL-12T  0.599
24. LK-2  0.536
25. NCI-H1755  0.486
26. NCI-H1651  0.465
27. NCI-H1395  0.427
28. LCLC-97TM1  0.368
29. HARA  0.318
30. HCC-827  0.223
31. EPLC-272H  0.21
32. NCI-H23  0.192

Same assay, conditions: first compound 4 µM

In order of rising relative viability:
1. HCC-827  0.185
2. NCI-H23  0.243
3. EPLC-272H  0.255
4. LK-2  0.263
5. HARA  0.297
6. LCLC-97TM1  0.335
7. NCI-H1651  0.403
8. NCI-H1755  0.404
9. NCI-H1395  0.454
10. NCI-H647  0.479
11. LU99A  0.49
12. NCI-H1355  0.551
13. NCI-H1734  0.593
14. HCC-78  0.598
15. NCI-H1915  0.616
16. LOU-NH91  0.624
17. NCI-H2405  0.624
18. HOP-62  0.651
19. NCI-H2170  0.654
20. NCI-H322M  0.656
21. CAL-12T  0.668
22. BEN  0.67
23. 201T  0.696
24. A-427  0.796
25. NCI-H2347  0.822
26. NCI-H460  0.829
27. H3255  0.892
28. LXF-289  0.943
29. NCI-H3122  0.944
30. NCI-H1437  1.06
31. NCI-H441  1.1
32. NCI-H2087  1.41
